Where two headings read alike, the source gives them in different places.

Experimental findings from article PMC8041284, “Tunable Methacrylamides for Covalent Ligand Directed Release Chemistry” (Journal of the American Chemical Society, 2021) are described below.

This test has as its target BTK (Homo sapiens, UniProt Q06187). Description: biochemical.
[1] abbreviates: read-out: BTK inhibition (%), 0.75 uM BTK, […] probe 3l, 15 min preincubation.

Chain of BTK (Q06187 402-655 limits assumed): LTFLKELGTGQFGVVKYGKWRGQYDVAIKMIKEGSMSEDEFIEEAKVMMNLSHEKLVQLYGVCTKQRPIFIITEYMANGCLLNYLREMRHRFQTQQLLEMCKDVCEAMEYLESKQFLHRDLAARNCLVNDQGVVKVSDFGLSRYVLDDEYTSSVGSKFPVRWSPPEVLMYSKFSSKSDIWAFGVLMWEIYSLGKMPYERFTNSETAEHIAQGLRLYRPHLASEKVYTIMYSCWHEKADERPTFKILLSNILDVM

As usually defined, the inhibition is the relative decrease from the control value, in per cent. For `CNC(=O)c1c(F)cccc1Nc1nc(Nc2cc3c(cc2OC)CCN3C(=O)CN(C)C)nc2[nH]ccc12` [PCM-0095412], the inhibition at 10 µM under setting [1] came out at 13.8%.
For the compound `c1ccc(-c2nn3c(c2-c2ccnc4cc(OCCN5CCOCC5)ccc24)CCC3)nc1` [PCM-0095413], under setting [1], the inhibition at 10 µM is -24.7%.
Same read-out and setting: the figure for `C[C@H](NC(=O)Cc1cc(F)cc(F)c1)C(=O)N[C@@H]1C(=O)N(C)c2ccccc2-c2ccccc21` [PCM-0095414] is 4.8%; for `Cc1ccccc1C(=O)Nc1ccc(C(=O)N2CCCC(O)c3cc(Cl)ccc32)c(C)c1` (centres unmarked) [PCM-0095415] it is 4.7%; for `COC1=C2C[C@@H](C)C[C@H](OC)[C@H](O)[C@@H](C)/C=C(\C)[C@H](OC(N)=O)[C@@H](OC)/C=C\C=C(/C)C(=O)NC(=CC1=O)C2=O` [PCM-0095416] it is 0%.
On the same count and under the same terms, to `C[C@H](NC(=O)[C@@H](O)c1cc(F)cc(F)c1)C(=O)N[C@@H]1C(=O)N(C)c2ccccc2-c2ccccc21` [PCM-0095417] belongs 6.2%.
Still for that read-out and setting: the figure for `CC(C)(C)c1nc(-c2cccc(NS(=O)(=O)c3c(F)cccc3F)c2F)c(-c2ccnc(N)n2)s1` [PCM-0095418] is 39.3%; for `CC(C)NC[C@@H](C(=O)N1CCN(c2ncnc3c2[C@H](C)C[C@H]3O)CC1)c1ccc(Cl)cc1` [PCM-0095420] it is -4.1%; for `Cc1ccc(-c2c(-c3nn(C)c4ncnc(N5CC[C@H](N6CCCCC6)C5)c34)cnn2C)cc1` [PCM-0095421] it is -2.3%.
With `C#Cc1cccc(Nc2ncnc3cc4c(cc23)OCCOCCOCCO4)c1` [PCM-0095422], the inhibition at 10 µM under setting [1] is -16.6%.
Same read-out and setting: to `CC(C)n1nc(-c2ccc3oc(N)nc3c2)c2c(N)ncnc21` [PCM-0095423] belongs -6.2%; to `Cc1cc(C)c2c(c1)[C@@H](N(Cc1cc(C(F)(F)F)cc(C(F)(F)F)c1)c1nnn(C)n1)CCCN2CC1CCC(C(=O)O)CC1` (some centres unmarked) [PCM-0095426], 16.3%; to `Cc1nc(NC(=O)N2CCC[C@H]2C(N)=O)sc1-c1ccnc(C(C)(C)C(F)(F)F)c1` [PCM-0095427], -7.6%.
As for `Cn1sc(=O)n(Cc2ccccc2)c1=O` [PCM-0095428], under setting [1], the inhibition at 10 µM was determined as 4.8%.
The same measure, in the same setting: to `O=C1C(=O)N(Cc2ccc(Cl)c(Cl)c2)c2ccccc21` [PCM-0095429] belongs 9.3%; to `Nc1ccc(-c2ccc3ncc4ccc(=O)n(-c5cccc(C(F)(F)F)c5)c4c3c2)cn1` [PCM-0095430], 9.7%; to `CC(=O)Nc1ccc(C(=O)Nc2ccccc2N)cc1` [PCM-0095432], -17.1%.
Same read-out and setting: the figure for `Cc1ccc(C(=O)Cn2c3c(sc2=N)CCCC3)cc1` [PCM-0095433] is -11.7%.
The same measure, in the same setting: to `CCS(=O)(=O)c1cccc(-c2cc(C(=O)NC3CCN(C)CC3)c(C)c3[nH]c4ncc(C)cc4c23)c1` [PCM-0095437] belongs 93.1%; to `Cc1csc(-c2nnc(Nc3ccc(Oc4ncccc4-c4ccnc(N)n4)cc3)c3ccccc23)c1` [PCM-0095438], 97.9%; to `CCc1ccc(OCc2ccccc2C(=O)Nc2ccc3nc(C)cc(N)c3c2)cc1` [PCM-0095441], 33.5%.
As to `CNC(=O)c1ccc(C)c(-n2c(C)cc(OCc3ccc(F)cc3F)c(Br)c2=O)c1` [PCM-0095443], the inhibition at 10 µM under setting [1] is -14.5%.
On the same count and under the same terms, to `COc1cc2ncnc(Nc3ccc(F)c(Cl)c3)c2cc1NC(=O)/C=C/CN1CCCCC1` [PCM-0095444] belongs 18.6%.
On the same count and under the same terms, to `Cc1c(C(=O)NN2CCCCC2)nn(-c2ccc(Cl)cc2Cl)c1-c1ccc(I)cc1` [PCM-0095445] belongs 34.2%.
In the case of `CN1c2cc(O)c(N=NC(N)=O)cc2CC1S(=O)(=O)O` (centres unmarked) [PCM-0095446], the inhibition at 10 µM under setting [1] was -10.9%.
On the same count and under the same terms, to `CNC(=O)c1ccccc1Nc1nc(Nc2ccc(N3CCOCC3)cc2OC)ncc1Cl` [PCM-0095447] belongs 67.6%; to `O=C(NC[C@H]1CN(c2ccc(N3CCOCC3=O)cc2)C(=O)O1)c1ccc(Cl)s1` [PCM-0095448], 4.7%; to `O=C(O)C(Cc1c[nH]c2ccccc12)N1C(=O)c2ccccc2C1=O` (centres unmarked) [PCM-0095449], 7.6%.
The same measure, in the same setting: to `O=c1sn(-c2cccc3ccccc23)c(=O)n1Cc1ccccc1` [PCM-0095450] belongs -12.4%; to `CC(=O)N[C@H]1[C@H]([C@H](O)[C@H](O)CO)OC(C(=O)O)=C[C@@H]1N=C(N)N` [PCM-0095451], -4.3%.
Still for that read-out and setting: the figure for `NC(=O)Nc1sc(-c2ccc(F)cc2)cc1C(N)=O` [PCM-0095452] is 96.6%.
Turning to `CC(C(=O)O)c1ccc2c(c1)CC(=O)c1ccccc1S2` (centres unmarked) [PCM-0095453], under setting [1], the inhibition at 10 µM was -15.9%.
On to `COc1ccc(CNCc2cccc3ccccc23)cc1` [PCM-0095454], for which the inhibition at 10 µM under setting [1] is -19.5%.
For `CCC(=O)N1CCN(c2ccc(-n3c(=O)ccc4cnc5ccc(-c6cnc7ccccc7c6)cc5c43)cc2C(F)(F)F)CC1` [PCM-0095455], under setting [1], the inhibition at 10 µM is -25.5%.
Same read-out and setting: to `c1cc(CN2CCCNCCNCCCNCC2)ccc1CN1CCCNCCNCCCNCC1` [PCM-0095456] belongs 6.8%; to `CNC(=O)c1ccc(N2C(=S)N(c3cnc(C#N)c(C(F)(F)F)c3)C(=O)C23CCC3)cc1F` [PCM-0095458], -3.1%; to `CC1(COc2ccc3c(c2)ncn3-c2ccc3cccc(N4CCC(N)CC4)c3n2)COC1` [PCM-0095459], 6.2%.
Still for that read-out and setting: to `COc1cc(OC2CCN(C)CC2)ccc1Nc1ncc2c(n1)n(C1CCCC1)c(=O)n2C` [PCM-0095460] belongs -15.2%; to `Cn1c(=O)c(F)c(Nc2ccc(I)cc2F)c2c(=O)n(C[C@@H](O)CO)cnc21` [PCM-0095463], 7.6%; to `CCn1cc(-c2ccnc3[nH]c(-c4cccc(CN(C)C)c4)cc23)c(-c2ccc(NC(=O)N(C)C)cc2)n1` [PCM-0095464], 48.3%.
The same measure, in the same setting: the figure for `COc1cccc(Nc2c(C(N)=O)cnc3c(C)cc(S(=O)(=O)c4cccc(C(=O)N(C)C)c4)cc23)c1` [PCM-0095466] is 0%.
Turning to `COc1ccc(-c2cc3c(C)nc(N)nc3n(C3CCC(OCCO)CC3)c2=O)cn1` (centres unmarked) [PCM-0095467], the inhibition at 10 µM under setting [1] is -9.7%.
With `CC(C)CCN1c2nc(Nc3cc(F)c(O)c(F)c3)ncc2N(C)C(=O)C1C` (centres unmarked) [PCM-0095469], the inhibition at 10 µM under setting [1] was determined as 48.3%.
As to `Cc1c(C(=O)NN2CCCCC2)nn(-c2ccc(Cl)cc2Cl)c1-c1ccc(Cl)cc1` [PCM-0095470], the inhibition at 10 µM under setting [1] amounted to 42%.
As to `Cn1nc(C(C)(C)C)cc1C(=O)N[C@@H](Cc1cccc(Cl)c1)C(=O)NCC#N` [PCM-0095472], the inhibition at 10 µM under setting [1] is -18.7%.
On the same count and under the same terms, the figure for `CCS(=O)(=O)N1CC(CC#N)(n2cc(-c3ncnc4[nH]ccc34)cn2)C1` [PCM-0095473] is -20%; for `CC(C)C[C@H](NC(=O)[C@H](CCc1ccccc1)NC(=O)CN1CCOCC1)C(=O)N[C@@H](Cc1ccccc1)C(=O)N[C@@H](CC(C)C)C(=O)[C@@]1(C)CO1` [PCM-0095475] it is -17.1%; for `COc1ccc2c(c1)=C(CC(=O)N1CCOCC1)C(C)(C(=O)c1ccc(Cl)cc1)N=2` (centres unmarked) [PCM-0095476] it is -2.3%.
For the compound `S=C=Nc1cccc(NC(=S)NCCCCNC(=S)Nc2cccc(N=C=S)c2)c1` [PCM-0095477], where the note is “read-out: BTK inhibition (%)”, the inhibition at 10 µM was 38.9%.
With `Cc1ncc(-c2ccnc(Nc3ccc(S(C)(=O)=O)cc3)n2)n1C(C)C` [PCM-0095478], the inhibition at 10 µM under setting [1] was found to be 48.3%.
Same read-out and setting: the figure for `Cc1cc(CN2CCN(c3c(Br)cnc4nc(-c5ccc(N6CCN(C)CC6)cc5)[nH]c34)CC2)no1` [PCM-0095479] is 4.3%.
On the same count and under the same terms, to `Nc1nc(NCCNc2ncc(-n3ccnc3)c(-c3ccc(Cl)cc3Cl)n2)ccc1[N+](=O)[O-]` [PCM-0095481] belongs 20.7%; to `COc1cccc2cc(-c3nc(C4CCC(C(=O)O)CC4)n4ncnc(N)c34)[nH]c12` (centres unmarked) [PCM-0095482], 28.3%.
Still for that read-out and setting: to `Cc1ccc(NC(=O)c2cccc(C(C)(C)C#N)c2)cc1Nc1ccc2ncn(C)c(=O)c2c1` [PCM-0095483] belongs 44.1%; to `COc1ccc2c(Oc3ccc(NC(=O)c4c(C)n(CC(C)(C)O)n(-c5ccccc5)c4=O)nc3)ccnc2c1` [PCM-0095484], 12.4%; to `Cc1cnc(NC(=O)Nc2cc(Br)c(C)cc2OC[C@@H]2CNCCO2)cn1` [PCM-0095485], 7.6%.
For the compound `COc1cc(F)c(C(C)C)cc1-c1ccc(C(F)(F)F)cc1CN1C(=O)O[C@H](c2cc(C(F)(F)F)cc(C(F)(F)F)c2)[C@@H]1C` [PCM-0095486], the inhibition at 10 µM under setting [1] stood at 22.6%.
On the same count and under the same terms, the figure for `CN1CCc2c(c3ccccc3n2Cc2ccc(C(=O)NO)cc2)C1` [PCM-0095487] is 0.8%; for `COc1ccc(-c2ccc3ncc4c(c3c2)n(-c2ccc(N3CCNCC3)c(C(F)(F)F)c2)c(=O)n4C)cn1` [PCM-0095488] it is 0.7%.
Still for that read-out and setting: the figure for `O=C(NC1CCOCC1)c1ccc(-c2cc(-c3cn[nH]c3-c3ccccn3)ccn2)cc1` [PCM-0095490] is 1.6%; for `COc1cc(OC)c(NC(=O)Nc2cc(C)on2)cc1Cl` [PCM-0095491] it is 10.9%.
Same read-out and setting: to `CNC(=O)c1nn(C)c2c1C(C)(C)Cc1cnc(Nc3ccc(N4CCN(C)CC4)cc3)nc1-2` [PCM-0095492] belongs 44.1%.
For the compound `O=C(O)Cc1cccc(OCCCN(Cc2cccc(C(F)(F)F)c2Cl)CC(c2ccccc2)c2ccccc2)c1` [PCM-0095493], under setting [1], the inhibition at 10 µM worked out at 23.4%.
Still for that read-out and setting: to `Cc1cc(Nc2ncnc3ccc(-c4ccc(CNCCS(C)(=O)=O)o4)cc23)ccc1Oc1ccn2ncnc2c1` [PCM-0095494] belongs -21.4%.
Take `NC(=O)c1cccc(-c2cccc(OC(=O)NC3CCCCC3)c2)c1` [PCM-0095495]: the inhibition at 10 µM under setting [1] is -6.2%.
On to `COc1ccc(NS(=O)(=O)c2sc3ccc(Cl)cc3c2C)cc1N1CCNCC1` [PCM-0095497], for which the inhibition at 10 µM under setting [1] was -35%.
As to `N#C[C@@H]1CCCN1C(=O)CNC12CC3CC(CC(O)(C3)C1)C2` [PCM-0095499], the inhibition at 10 µM under setting [1] turned out to be 1.6%.
On the same count and under the same terms, the figure for `CC(C)n1cnc2c(NCCc3ccc(O)cc3)nc(-c3csc4ccccc34)nc21` [PCM-0095500] is 34.2%.
